Reference: ChEMBL document CHEMBL4270488, “Antibacterial Compounds from Marine Bacteria, 2010-2015” (J Nat Prod, 2017)
Values after ≈ are worked out from the molar mass of the structure shown. *1 amine or outer side, *2 acyl side, *3 side chain or, on linkers, in order; H or OH if unused. Where a SMILES comes first, the peptide text is derived from it. Bridges are numbered along the chain shown (N, C = ends). Roman numbers before positions name the chains, in order. [ ]: non-standard residue; d: D form. Actinocin(1to9) = Cc1c2oc3c(C)ccc(C(=O)[*:2])c3nc-2c(C(=O)[*:1])c(N)c1=O; Pro(4-oxo) = O=C1CN[C@H](C(=O)O)C1; NMeV = CN[C@H](C(=O)O)C(C)C; Sar = CNCC(=O)O

Experiments:
[1] = tested on: Mycobacterium tuberculosis variant bovis; test: Antibacterial activity against Mycobacterium bovis BCG str. Pasteur 1173P2 incubated for 3 days by GFP based fluorescence assay; type: functional; conditions: 72 h
[2] = tested on: Mycobacterium tuberculosis variant bovis; test: Antibacterial activity against Mycobacterium bovis BCG str. Pasteur 1173P2 incubated for 16 hrs; type: functional

Cc1c2oc3c(C)ccc(C(=O)N[C@@H]4C(=O)N[C@H](C(C)C)C(=O)N5CCC[C@H]5C(=O)N(C)CC(=O)N(C)[C@@H](C(C)C)C(=O)O[C@@H]4C)c3nc-2c(C(=O)N[C@@H]2C(=O)N[C@H](C(C)C)C(=O)N3CCC[C@H]3C(=O)N(C)CC(=O)N(C)[C@@H](C(C)C)C(=O)O[C@@H]2C)c(N)c1=O [DACTINOMYCIN] (I: T[dV]P[Sar][NMeV] / II: T[dV]P[Sar][NMeV]; ester I:1-I:C, II:1-II:C; linker I:N-II:N via Actinocin(1to9))
MIC [1]: 0.2 to 0.5 µg/mL (≈ 0.159 to 0.398 µM)

COC(=O)N[C@H]1[C@@H](C)O[C@@H](O[C@H]2C/C=C(\C)[C@@H]3C=C[C@@H]4[C@@H](O[C@H]5C[C@@H](O[C@H]6C[C@@H](O)[C@@H](O[C@@H]7C[C@@H](O)[C@@H](OC)[C@H](C)O7)[C@H](C)O6)[C@@H](O)[C@H](C)O5)[C@@H](C)C[C@H](C)[C@H]4[C@]3(C)C(=O)C3=C(O)[C@@]4(C[C@@H](C)C(CO)=C[C@H]4/C=C/2C)OC3=O)C[C@]1(C)[N+](=O)[O-]
MIC [2]: 0.8 to 1.5 µg/mL (≈ 0.674 to 1.26 µM)

COC(=O)N[C@H]1[C@@H](C)O[C@@H](O[C@H]2C/C=C(\C)[C@@H]3C=C[C@@H]4[C@@H](O[C@H]5C[C@@H](O[C@H]6C[C@@H](O)[C@@H](O[C@@H]7C[C@@H](O)[C@@H](OC)[C@H](C)O7)[C@H](C)O6)[C@@H](O)[C@H](C)O5)[C@@H](C)C[C@H](C)[C@H]4[C@]3(C)C(=O)C3=C(O)[C@@]4(C[C@@H](C)C(CO)=C[C@H]4/C=C/2C)OC3=O)C[C@]1(C)N
MIC [2]: 0.8 to 1.5 µg/mL (≈ 0.691 to 1.3 µM)

Cc1c2oc3c(C)ccc(C(=O)N[C@@H]4C(=O)N[C@H](C(C)C)C(=O)N5CCC[C@H]5C(=O)N(C)CC(=O)N(C)[C@@H](C(C)C)C(=O)O[C@@H]4C)c3nc-2c(C(=O)N[C@@H]2C(=O)N[C@H](C(C)C)C(=O)N3CC(O)C[C@H]3C(=O)N(C)CC(=O)N(C)[C@@H](C(C)C)C(=O)O[C@@H]2C)c(N)c1=O (stereo not given in full)
MIC [1]: 0.2 to 0.5 µg/mL (≈ 0.157 to 0.393 µM)

Cc1c2oc3c(C)ccc(C(=O)N[C@@H]4C(=O)N[C@H](C(C)C)C(=O)N5CCC[C@H]5C(=O)N(C)CC(=O)N(C)[C@@H](C(C)C)C(=O)O[C@@H]4C)c3nc-2c(C(=O)N[C@@H]2C(=O)N[C@H](C(C)C)C(=O)N3CC(=O)C[C@H]3C(=O)N(C)CC(=O)N(C)[C@@H](C(C)C)C(=O)O[C@@H]2C)c(N)c1=O (I: T[dV][Pro(4-oxo)][Sar][NMeV] / II: T[dV]P[Sar][NMeV]; ester I:1-I:C, II:1-II:C; linker I:N-II:N via Actinocin(1to9))
MIC [1]: 0.2 to 0.5 µg/mL (≈ 0.158 to 0.394 µM)
